Experimental data published in patent US8097629B2, “Dihydropyridinone derivatives” (Bayer Pharma Aktiengesellschaft, priority 2004, dated 2012).

Tests used:
[1] = molecular target: T1, human neutrophil elastase (HNE) (Homo sapiens, UniProt P08246); assay: In vitro inhibition of HNE using a fluorogenic peptide substrate; format: biochemical; conditions: substrate MeOSuc-Ala-Ala-Pro-Val-AMC, 384 MTP format
T1 construct: purchased SERVA Electrophoresis GmbH, Heidelberg, Germany #20927.01
T1 sequence (P08246 30-267): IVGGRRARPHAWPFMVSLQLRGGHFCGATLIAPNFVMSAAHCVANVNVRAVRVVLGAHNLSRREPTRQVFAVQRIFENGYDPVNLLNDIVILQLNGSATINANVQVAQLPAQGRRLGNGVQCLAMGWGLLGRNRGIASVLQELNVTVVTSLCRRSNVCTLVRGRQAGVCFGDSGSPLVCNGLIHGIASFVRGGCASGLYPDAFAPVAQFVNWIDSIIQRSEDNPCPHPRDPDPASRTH
Method: I. In vitro Enzyme Assays of Human Neutrophil Elastase (HNE)
assay buffer: 0.1 M HEPES-NaOH buffer pH 7.4, 0.5 M NaCl, 0.1% (w/v) bovine serum albumin;
suitable concentration (see below) of HNE (18 U/mg lyophil., #20927.01, SERVA Electrophoresis GmbH, Heidelberg, Germany) in assay buffer;
suitable concentration (see below) of substrate in assay buffer;
suitable concentration of test compounds diluted with assay buffer from a 10 mM stock solution in DMSO.
In vitro Inhibition of HNE Using a Fluorogenic Peptide Substrate (Continuous Read-out Signal, 384 MTP Assay Format):
In this protocol, the elastase substrate MeOSuc-Ala-Ala-Pro-Val-AMC (#324740, Calbiochem-Novabiochem Corporation, Merck KGaA, Darmstadt, Germany) is used. The test solution is prepared by mixing 10 μl of test compound dilution, 20 μl of HNE enzyme dilution (final concentration 8-0.4 μU/ml, routinely 2.1 μU/ml) and 20 μl of substrate dilution (final concentration 1 mM-1 μM, routinely 20 μM), respectively. The solution is incubated for 0-2 hrs at 37° C. (routinely one hour). The fluorescence of the liberated AMC due to the enzymatic reaction is measured at 37° C. (TECAN spectra fluor plus plate reader). The rate of increase of the fluorescence (ex. 395 nm, em. 460 nm) is proportional to elastase activity. IC50 values are determined by RFU-versus-[I] plots. Km and Km(app.) values are determined by Lineweaver-Burk plots and converted to Ki values by Dixon plots.

[2] = test system: human polymorphonuclear cells (PMNs); assay: In vitro PMN elastolysis assay; format: cell-based; conditions: mean±s.e.m.
Method: In vitro PMN Elastolysis Assay:
This assay is used to determine the elastolytic potential of human polymorphonuclear cells (PMNs) and assess the proportion of degradation due to neutrophil elastase [cf. Z. W. She et al., Am. J Respir. Cell. Mol. Biol. 9, 386-392 (1993)].
Tritiated elastin, in suspension, is coated on to a 96 well plate at 10 μg per well. Test and reference [ZD-0892 (J. Med. Chem. 40, 1876-1885, 3173-3181 (1997), WO 95/21855) and α1 protease inhibitor (α1PI)] compounds are added to the wells at the appropriate concentrations. Human PMNs are separated from peripheral venous blood of healthy donors and resuspended in culture media. The neutrophils are added to the coated wells at concentrations ranging between 1×10^6 to 1×10^5 cells per well. Porcine pancreatic elastase (1.3 μM) is used as a positive control for the assay, and α1PI (1.2 μM) is used as the positive inhibitor of neutrophil elastase. The cellular, control is PMNs without compound at each appropriate cell density. The cells plus compounds are incubated in a humidified incubator at 37° C. for 4 hours. The plates are centrifuged to allow the harvest of cell supernatant only. The supernatant is transferred in 75 μl volumes to corresponding wells of a 96 well Lumaplate™ (solid scintillant containing plates). The plates are dried until no liquid is visible in the wells and read in a beta counter for 3 minutes per well. […]

Compound	IC50 [1] [nM]	other results
COc1ccc(CN(C)C(=O)C2C(=O)N(c3cccc(C(F)(F)F)c3)C(C)=C(C(C)=O)C2c2ccc(C#N)cc2)cc1 (centres unmarked) [Example 19]	40	–
CC(=O)C1=C(C)N(c2cccc(C(F)(F)F)c2)C(=O)C(C(=O)N(C)c2cccc(C)c2)C1c1ccc(C#N)cc1 (centres unmarked) [Example 27]	30	–
CC(=O)C1=C(C)N(c2cccc(C(F)(F)F)c2)C(=O)C(C(=O)N2CCN3CCCC3C2)C1c1ccc(C#N)cc1 (centres unmarked) [Example 34]	60	–
CC(=O)C1=C(C)N(c2cccc(C(F)(F)F)c2)C(=O)C(C(=O)N2CCN(CCN3CCOCC3)CC2)C1c1ccc(C#N)cc1 (centres unmarked) [Example 45]	70	–
CCOC(=O)N1CCN(C(=O)C2C(=O)N(c3cccc(C(F)(F)F)c3)C(C)=C(C(C)=O)C2c2ccc(C#N)cc2)CC1 (centres unmarked) [Example 54]	60	–
COCCOCCCNC(=O)C1C(=O)N(c2cccc(C(F)(F)F)c2)C(C)=C(C(C)=O)C1c1ccc(C#N)cc1 (centres unmarked) [Example 61]	50	–
COc1ccc(C(=O)N[C@H](C(=O)N2CCC[C@H]2C(=O)N[C@H](C(=O)C(F)(F)F)C(C)C)C(C)C)cc1 [ZD-0892]	–	IC50 ([2]; n=2 different donors at 3.6×10^5 cells per well): 45.5 ± 7.75 nM
α1PI: α1 protease inhibitor, used as the positive inhibitor of neutrophil elastase	–	inhibition of 3H-elastin elastolysis ([2]; at 1.2 μM, n=3 different donors at 3.6×10^5 cells per well): 83.46±3.97%
